In patent US20070128235A1, “Juvenile hormone transmethylase genes and method of using the same” (Inc. Admin Agency Natl Agr and Bio-oriented Research Org, priority 2003, published 2007):

Tests used:
[1] = tested on: recombinant Bombyx mori JHAMT; assay: Juvenile hormone synthesis by recombinant juvenile hormone acid methyltransferase (enzyme reaction, reverse phase HPLC); assay type: biochemical; details: 25° C.; for production of the corresponding active juvenile hormone in the reaction solution: 100 μg substrate, S-adenosyl methionine, ten minutes, reverse phase HPLC (FIG. 4); for molecular activity (number of substrate molecules changed to reaction product by one molecule of the enzyme in one minute): Tris-HCL 50 mM, pH 7.5, 1 mM S-adenosyl methionine and 100 μM of each JH acid, mean±standard deviation, n=3
Procedure: (§1) A reverse phase column (CAPCELL PAK C18 UG80 S-5, 3×150 mm, Shiseido) was attached to an HPLC apparatus (JASCO), and juvenile hormones were detected by measuring absorbance at 217 nm using an ultraviolet detector. Samples were flowed at a rate of 0.5 ml/min, at a column retention temperature of 40° C., for 20 minutes, in 60% acetonitrile or 80% acetonitrile.
100 μg of a juvenile hormone acid (either JH I acid, JH II acid, JH III acid, or farnesoic acid) dissolved in toluene was transferred into a silicone-treated glass test tube (10×150 mm) using a glass capillary, and the solvent was removed under a nitrogen stream. 800 μl of buffer (50 mM Tris-Cl, pH 7.5) and 100 μl of 10 mM S-adenosyl methionine solution were added thereto and mixed sufficiently, then left to stand in a 25° C. thermostat water bath for five minutes. 100 μl of the recombinant protein solution obtained by the method of Example 3 was added thereto to initiate enzyme reaction. After ten minutes, 250 μl of reaction termination solution (methanol:water:concentrated aqueous ammonia=10:9:1) was added to terminate the enzyme reaction 1 ml of isooctane was added and mixed sufficiently, then the mixture was centrifuged (2,000 rpm, 15 minutes, room temperature) to separate the organic solvent layer and the aqueous layer. 100 μl of the organic solvent layer was transferred into a small vial using a glass capillary, and then the solvent was removed under a nitrogen stream to obtain a residue, which was dissolved in 100 μl of acetonitrile to analyze the synthesized juvenile hormone by a method using reverse phase HPLC. […] The molecular activities of the recombinant Bombyx mori JHAMT against JH I acid, JH II acid, JH III acid, and farnesoic acid were determined in conditions where the buffer was Tris-HCL (50 mM, pH 7.5), the reaction temperature was 25° C., and the substrates were 1 mM of S-adenosyl methionine and 100 μM of each JH acid. These activities (the number of substrate molecules changed to reaction product by one molecule of the enzyme in one minute) were 1.80±0.32, 1.65±0.23, 0.79 ±0.06, and 0.48±0.07 (mean±standard deviation n=3), respectively. When a saturated straight chain fatty acid or an unsaturated straight chain fatty acid was used as a substrate, methyl esterification by the enzyme was not observed. Therefore, the enzyme reaction was substrate-specific to juvenile hormone acid.

[2] = target: T1, recombinant Drosophila melanogaster JHAMT (Drosophila melanogaster, UniProt Q9VJK8, F166Y/S182N); assay: Molecular activity of recombinant Drosophila melanogaster juvenile hormone acid methyltransferase; assay type: biochemical; details: Tris-HCL 50 mM, pH 7.5; 25° C.; 1 mM S-adenosyl methionine and 100 μM of each JH acid; mean±standard deviation, n=3
T1 construct: to amplify the coding region of the juvenile hormone acid methyltransferase gene from Drosophila melanogaster; made in house
T1 sequence (Q9VJK8 whole entry F166Y/S182N): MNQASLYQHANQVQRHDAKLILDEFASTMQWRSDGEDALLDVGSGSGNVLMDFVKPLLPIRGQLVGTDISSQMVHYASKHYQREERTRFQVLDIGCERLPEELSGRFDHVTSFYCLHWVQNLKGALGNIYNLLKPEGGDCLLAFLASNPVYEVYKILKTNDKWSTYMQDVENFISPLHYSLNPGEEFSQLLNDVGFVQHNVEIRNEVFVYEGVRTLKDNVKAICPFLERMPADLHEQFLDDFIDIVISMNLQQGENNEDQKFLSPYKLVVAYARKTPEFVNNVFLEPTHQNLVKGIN
Procedure: as §1
100 μg of a juvenile hormone acid (either JH I acid, JH II acid, JH III acid, or farnesoic acid) dissolved in toluene was transferred into a silicone-treated glass test tube (10×150 mm) using a glass capillary, and the solvent was removed under a nitrogen stream. 800 μl of buffer (50 mM Tris-Cl, pH 7.5) and 100 μl of 10 mM S-adenosyl methionine solution were added thereto and mixed sufficiently, then left to stand in a 25° C. thermostat water bath for five minutes. 100 μl of the recombinant protein solution obtained by the method of Example 3 was added thereto to initiate enzyme reaction. After ten minutes, 250 μl of reaction termination solution (methanol:water:concentrated aqueous ammonia=10:9:1) was added to terminate the enzyme reaction 1 ml of isooctane was added and mixed sufficiently, then the mixture was centrifuged (2,000 rpm, 15 minutes, room temperature) to separate the organic solvent layer and the aqueous layer. […] The molecular activities of the recombinant Bombyx mori JHAMT against JH I acid, JH II acid, JH III acid, and farnesoic acid were determined in conditions where the buffer was Tris-HCL (50 mM, pH 7.5), the reaction temperature was 25° C., and the substrates were 1 mM of S-adenosyl methionine and 100 μM of each JH acid. […]
cDNAs synthesized by reverse transcription of RNA extracted from a whole adult Drosophila melanogaster were used as a template for PCR using the DMJF primer (SEQ ID NO: 17) and DMJR primer (SEQ ID NO: 18) to amplify the coding region of the juvenile hormone acid methyltransferase gene from Drosophila melanogaster. […] The activity of the recombinant protein was determined by the same method as in Example 4, confirming that the protein encoded by the gene had juvenile hormone acid methyltransferase activity. The molecular activities of the recombinant Drosophila melanogaster JHAMT against JH I acid, JH II acid, JH III acid, and farnesoic acid were determined under conditions where the buffer was Tris-HCL (50 mM, pH 7.5), the reaction temperature was 25° C., and the substrates were 1 mM of S-adenosyl methionine and 100 μM of each JH acid. These activities were determined to be 2.67±0.44, 2.07±0.26, 1.76±0.13, and 2.3±0.51 (mean±standard deviation, n=3), respectively.

SMILES	production of the corresponding active juvenile hormone in the reaction solution [1]	molecular activity (number of substrate molecules changed to reaction product by one molecule of the enzyme in one minute) [1]	molecular activity [2]
CC[C@]1(C)O[C@@H]1CC/C(C)=C/CC/C(C)=C/C(=O)O [JH II acid]	confirmed to be produced	1.65±0.23	2.07±0.26
C/C(=C\C(=O)O)CC/C=C(\C)CCC1OC1(C)C (stereo not drawn) [JH III acid]	confirmed to be produced	0.79 ±0.06	1.76±0.13
CC(C)=CCCC(C)=CCCC(C)=CC(=O)O [farnesoic acid]	confirmed to be produced	0.48±0.07	2.3±0.51
CC/C(=C\CC/C(C)=C/C(=O)O)CCC1OC1(C)CC (stereo not drawn) [JH I acid]	confirmed to be produced	1.80±0.32	2.67±0.44
